From patent publication US20170334899A1, “AMINO-SUBSTITUTED ISOTHIAZOLES” (Bayer Pharma Aktiengesellschaft, priority 2014, published 2017)
“And” between values parts separate entries of the source, which are not always exact repeats. Equal values may be shown once. Read-outs that look alike come from different tables or passages of the source.

Experiments:
[1] = system: HeLa; test: Proliferation assay (crystal violet), HeLa; format: cell-based; settings: HeLa cells, 4 days incubation, crystal violet staining, read-out: IC50 inhibition of proliferation, HeLa
Method in brief: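 Seed 1000–5000 cells/well, 10% FCS; 24 h later replace medium and add compound (0.001–10 μM, 0.5% DMSO); incubate 4 d; glutaraldehyde fix, 0.1% crystal violet pH 3.0, elute with 10% acetic acid; A595; 4-parameter IC50.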

[2] = target: T1, catalytic domain of human Bub1 (amino acids 704-1085) (Homo sapiens, UniProt O43683); test: Bub1 kinase assay (TR-FRET); format: biochemical; settings: 10 μM ATP, avg, read-out: Bub1 avg (IC50 [mol/l])
T1 construct: catalytic domain of human Bub1 (amino acids 704-1085); His6 (N); made in house; host or cells: insect cells (Hi5)
T1 sequence (O43683 704-1085): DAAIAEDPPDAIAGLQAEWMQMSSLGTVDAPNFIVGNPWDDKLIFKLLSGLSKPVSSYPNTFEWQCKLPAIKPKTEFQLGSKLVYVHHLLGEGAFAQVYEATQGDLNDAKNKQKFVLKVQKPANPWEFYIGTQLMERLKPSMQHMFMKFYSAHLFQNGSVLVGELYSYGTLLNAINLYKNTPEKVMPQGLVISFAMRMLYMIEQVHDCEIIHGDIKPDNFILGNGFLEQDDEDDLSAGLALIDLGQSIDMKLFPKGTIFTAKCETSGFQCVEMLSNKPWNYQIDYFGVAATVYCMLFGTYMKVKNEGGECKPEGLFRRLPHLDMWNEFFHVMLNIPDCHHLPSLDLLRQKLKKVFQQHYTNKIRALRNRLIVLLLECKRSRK
Source text: Bub1-inhibitory activity of compounds of the present invention was quantified employing the Bub1 TR-FRET assay as described in the following paragraphs.
N-terminally His6-tagged recombinant catalytic domain of human Bub1 (amino acids 704-1085), expressed in insect cells (Hi5) and purified by Ni-NTA affinity chromatography and subsequent size exclusion chromatography, was used as enzyme. As substrate for the kinase reaction the biotinylated peptide biotin-Ahx-VLLPKKSFAEPG (C-terminus in amid form) was used which can be purchased e.g. form the company Biosyntan (Berlin, Germany).
For the assay 50 nl of a 100fold concentrated solution of the test compound in DMSO was pipetted into a black low volume 384well microtiter plate (Greiner Bio-One, Frickenhausen, Germany), 2 μl of a solution of Bub1 in aqueous assay buffer [50 mM Tris/HCl pH 7.5, 10 mM magnesium chloride (MgCl2), 200 mM potassium chloride (KCl), 1.0 mM dithiothreitol (DTT), 0.1 mM sodium ortho-vanadate, 1% (v/v) glycerol, 0.01% (w/v) bovine serum albumine (BSA), 0.005% (v/v) Trition X-100 (Sigma), 1× Complete EDTA-free protease inhibitor mixture (Roche)] were added and the mixture was incubated for 15 min at 22° C. to allow pre-binding of the test compounds to the enzyme before the start of the kinase reaction. Then the kinase reaction was started by the addition of 3 μl of a solution of adenosine-tri-phosphate (ATP, 16.7 μM=>final conc. in the 5 μl assay volume is 10 μM) and substrate (1.67 μM=>final conc. in the 5 μl assay volume is 1 μM) in assay buffer and the resulting mixture was incubated for a reaction time of 60 min at 22° C. The concentration of Bub1 was adjusted depending of the activity of the enzyme lot and was chosen appropriate to have the assay in the linear range, typical concentrations were in the range of 200 ng/ml. The reaction was stopped by the addition of 5 μl of a solution of TR-FRET detection reagents (0.2 μM streptavidine-XL665 [Cisbio Bioassays, Codolet, France] and 1 nM anti-phosho-Serine antibody [Merck Millipore, cat. #35-001] and 0.4 nM LANCE EU-W1024 labeled anti-mouse IgG antibody [Perkin-Elmer, product no. AD0077, as an alternative a Terbium-cryptate-labeled anti-mouse IgG antibody from Cisbio Bioassays can be used]) in an aqueous EDTA-solution (50 mM EDTA, 0.2% (w/v) bovine serum albumin in 100 mM HEPES pH 7.5).
The resulting mixture was incubated 1 h at 22° C. to allow the formation of complex between the phosphorylated biotinylated peptide and the detection reagents. Subsequently the amount of phosphorylated substrate was evaluated by measurement of the resonance energy transfer from the Eu-chelate to the streptavidine-XL. Therefore, the fluorescence emissions at 620 nm and 665 nm after excitation at 350 nm was measured in a TR-FRET reader, e.g. a Rubystar or Pherastar (both from BMG Labtechnologies, Offenburg, Germany) or a Viewlux (Perkin-Elmer). The ratio of the emissions at 665 nm and at […] was taken as the measure for the amount of phosphorylated substrate. The data were normalised (enzyme reaction without inhibitor=0% inhibition, all other assay components but no enzyme=100% inhibition).

IC50 [1] [µM]	IC50 [2]	IC50 ([1]; Homo sapiens, HeLa, 96 h) [µM]	Compound
0.55	≥ 20 µM	–	Cc1nsc(Nc2cnc(C(F)(F)F)cn2)c1C(=O)Nc1ccc(O[C@@H]2CCN(CC(F)(F)F)C2)nc1 [Example 421, 3-Methyl-N-(6-{[(3R)-1-(2,2,2-trifluoroethyl)pyrrolidin-3-yl]oxy}pyridin-3-yl)-5-{[5-(trifluoromethyl)pyrazin-2-yl]amino}-1,2-thiazole-4-carboxamide]
–	≥ 20 µM	0.85	Cc1nsc(Nc2cncc(C(F)(F)F)n2)c1C(=O)Nc1ccc(OCC2CCN(C(=O)OC(C)(C)C)C2)nc1 (stereo not drawn) [Example 110, tert-Butyl 3-{[(5-{[(3-methyl-5-{[6-(trifluoromethyl)pyrazin-2-yl]amino}-1,2-thiazol-4-yl)carbonyl]amino}pyridin-2-yl)oxy]methyl}pyrrolidine-1-carboxylate]
0.41	≥ 20 µM	–	Cc1nsc(Nc2cnc(C(F)(F)F)cn2)c1C(=O)Nc1ccc(O[C@@H]2CCN(CCC(F)(F)F)C2)nc1 [Example 423, 3-Methyl-5-{[5-(trifluoromethyl)pyrazin-2-yl]amino}-N-(6-{[(3R)-1-(3,3,3-trifluoropropyl)pyrrolidin-3-yl]oxy}pyridin-3-yl)-1,2-thiazole-4-carboxamide]
–	> 20 µM	0.16	Cc1nsc(Nc2cnc(C(F)(F)F)cn2)c1C(=O)Nc1ccc(O[C@H]2CCN(CC(F)F)C[C@H]2F)nc1 [Example 144, N-(6-{[(3R,4S)-1-(2,2-difluoroethyl)-3-fluoropiperidin-4-yl]oxy}pyridin-3-yl)-3-methyl-5-{[5-(trifluoromethyl)pyrazin-2-yl]amino}-1,2-thiazole-4-carboxamide]
–	≥ 20 µM	1.8	CC(=O)N1CCC(Oc2ccc(NC(=O)c3c(C)nsc3Nc3cnc(C(F)(F)F)cn3)cn2)CC1 [Example 11, N-{6-[(1-Acetylpiperidin-4-yl)oxy]pyridin-3-yl}-3-methyl-5-{[5-(trifluoromethyl)-pyrazin-2-yl]amino}-1,2-thiazole-4-carboxamide]
–	≥ 20 µM	0.58	Cc1nsc(Nc2cnc(C(F)(F)F)cn2)c1C(=O)Nc1ccc(OC2CCN(CCF)CC2)nc1 [Example 7, N-(6-{[1-(2-Fluoroethyl)piperidin-4-yl]oxy}pyridin-3-yl)-3-methyl-5-{[5-(trifluoromethyl)pyrazin-2-yl]amino}-1,2-thiazole-4-carboxamide]
–	≥ 20 µM	0.13	Cc1nsc(Nc2cnc(C(F)(F)F)cn2)c1C(=O)Nc1ccc(OCC2CCN(CC(F)(F)F)C2)nc1 (stereo not drawn) [Example 123, 3-Methyl-N-(6-{[1-(2,2,2-trifluoroethyl)pyrrolidin-3-yl]methoxy}pyridin-3-yl)-5-{[5-(trifluoromethyl)pyrazin-2-yl]amino}-1,2-thiazole-4-carboxamide]
–	≥ 20 µM	0.28	Cc1nsc(Nc2cnc(C(F)(F)F)cn2)c1C(=O)Nc1ccc(OCC2CCN(CC(F)F)C2)nc1 (stereo not drawn) [Example 122, N-(6-{[1-(2,2-difluoroethyl)pyrrolidin-3-yl]methoxy}pyridin-3-yl)-3-methyl-5-{[5-(trifluoromethyl)pyrazin-2-yl]amino}-1,2-thiazole-4-carboxamide]
–	≥ 20 µM	0.91	Cc1nsc(Nc2cncc(C(F)(F)F)n2)c1C(=O)Nc1ccc(OC2CCN(C(=O)OC(C)(C)C)CC2)nc1 [Example 12, tert-Butyl 4-[(5-{[(3-methyl-5-{[6-(trifluoromethyl)pyrazin-2-yl]amino}-1,2-thiazol-4-yl)carbonyl]amino}pyridin-2-yl)oxy]piperidine-1-carboxylate]
–	> 20 µM	3.3	Cc1nsc(Nc2cnc(C(F)(F)F)cn2)c1C(=O)Nc1ccc(OC2CCN(C(C)C)CC2)nc1 [Example 160, N-{6-[(1-isopropylpiperidin-4-yl)oxy]pyridin-3-yl}-3-methyl-5-{[5-(trifluoromethyl)pyrazin-2-yl]amino}-1,2-thiazole-4-carboxamide]
–	> 20 µM	0.91	Cc1nsc(Nc2cncc(C(F)(F)F)n2)c1C(=O)Nc1ccc(F)c(OC2CCN(C(=O)OC(C)(C)C)CC2)c1 [Example 168, tert-butyl 4-(2-fluoro-5-{[(3-methyl-5-{[6-(trifluoromethyl)pyrazin-2-yl]amino}-1,2-thiazol-4-yl)carbonyl]amino}phenoxy)piperidine-1-carboxylate]

Further lines, the compound ahead of its results:

Compound	IC50 [1] [µM]	IC50 [2]	IC50 ([1]; Homo sapiens, HeLa, 96 h) [µM]
Cc1nsc(Nc2ccc(C#N)cn2)c1C(=O)Nc1ccc(C(=O)OC(C)(C)C)cc1 [Example 98, tert-Butyl 4-[({5-[(5-cyanopyridin-2-yl)amino]-3-methyl-1,2-thiazol-4-yl}carbonyl)-amino]benzoate]	–	≥ 20 µM	0.69
Cc1nsc(Nc2cnc3ccccc3n2)c1C(=O)Nc1ccc(S(C)(=O)=O)cc1 [Example 115, 3-Methyl-N-[4-(methylsulfonyl)phenyl]-5-(quinoxalin-2-ylamino)-1,2-thiazole-4-carboxamide]	–	8.9 µM	4.4
Cc1nsc(Nc2cc(C#N)ccn2)c1C(=O)Nc1cccc(C(=O)N2CCCC2)c1 [Example 114, 5-[(4-Cyanopyridin-2-yl)amino]-3-methyl-N-[3-(pyrrolidin-1-ylcarbonyl)phenyl]-1,2-thiazole-4-carboxamide]	–	≥ 20 µM	10
Cc1nsc(Nc2cnc(C(F)(F)F)cn2)c1C(=O)Nc1ccc(F)c(OCC2CCCN(CC(F)F)C2)c1 (stereo not drawn) [Example 335, N-(3-{[1-(2,2-difluoroethyl)piperidin-3-yl]methoxy}-4-fluorophenyl)-3-methyl-5-{[5-(trifluoromethyl)pyrazin-2-yl]amino}-1,2-thiazole-4-carboxamide]	0.84	≥ 20 µM	–
Cc1nsc(Nc2cnc3ccccc3n2)c1C(=O)Nc1cccc(-c2nnc(C(C)(C)C)o2)c1 [Example 107, N-[3-(5-tert-Butyl-1,3,4-oxadiazol-2-yl)phenyl]-3-methyl-5-(quinoxalin-2-ylamino)-1,2-thiazole-4-carboxamide]	–	≥ 20 µM	3
Cc1nsc(Nc2cnc3ccccc3n2)c1C(=O)Nc1ccc(C(=O)N2CCCN(CC(F)(F)F)CC2)cc1 [Example 159]	–	> 20 µM	2.3
Cc1nsc(Nc2cnc3ccccc3n2)c1C(=O)Nc1ccc(NC2CC2)nc1 [Example 172, N-[6-(cyclopropylamino)pyridin-3-yl]-3-methyl-5-(quinoxalin-2-ylamino)-1,2-thiazole-4-carboxamide]	–	> 20 µM and 18 µM	> 10
Cc1nsc(Nc2cnc(C(F)(F)F)cn2)c1C(=O)Nc1ccc(C(=O)O)cc1 [Example 97, 4-{[(3-Methyl-5-{[5-(trifluoromethyl)pyrazin-2-yl]amino}-1,2-thiazol-4-yl)carbony]-amino}benzoic acid]	–	2.9 µM	10
Cc1nsc(Nc2cnc3ccccc3n2)c1C(=O)Nc1ccc(C(=O)N2CCN(CC(F)F)CC2)cc1 [Example 157, N-(4-{[4-(2,2-difluoroethyl)piperazin-1-yl]carbonyl}phenyl)-3-methyl-5-(quinoxalin-2-ylamino)-1,2-thiazole-4-carboxamide]	–	> 20 µM	> 10
Cc1nsc(Nc2ccc(C#N)cn2)c1C(=O)Nc1cccc(S(C)(=O)=O)c1 [Example 150, 5-[(5-cyanopyridin-2-yl)amino]-3-methyl-N-[3-(methylsulfonyl)phenyl]-1,2-thiazole-4-carboxamide]	–	> 20 µM	2.8
